Values joined by “and” are separate entries in the source; they are usually repeats but may differ in a detail not shown here. Equal values may be shown once. ± gives the expanded uncertainty stated by the source.

Test in the first data set: not given
The settings on record: 298.15 K; 101.33 kPa; Liquid; Vibrating tube method.
What is called mass density is mass per unit of volume. As to `CCO` [ethanol], the mass density was 785.02 ± 0.12 kg/m3.

As for `CO` [methanol], the mass density was found to be 786.59 ± 0.12 kg/m3.

For the molecule `CCCCCCCCO` [octan-1-ol], the mass density was 821.6 ± 0.11 kg/m3.

For the molecule `CC(C)O` [propan-2-ol], the mass density was 780.8 ± 0.13 kg/m3.

The same data set, now with this note: Crystal; DTA.
For `CC(=O)Oc1ccccc1C(=O)O` [2-acetoxybenzoic acid], the Normal melting temperature is 135.50 ± 0.7 °C.

As for `CC(=O)Nc1ccc(O)cc1` [N-acetyl-p-aminophenol], the Normal melting temperature came to 169.20 ± 0.7 °C.

On to `N=C(N)N` [guanidine], for which the Normal melting temperature amounted to 141.00 ± 0.7 °C.

A further data set is described as follows: Molar enthalpy of transition or fusion. The following applies: Crystal; DSC.
As for `CC(=O)Oc1ccccc1C(=O)O` [2-acetoxybenzoic acid], the “Molar enthalpy of transition or fusion” value came out at 33.5 ± 0.73 kJ/mol.

`CC(=O)Nc1ccc(O)cc1` [N-acetyl-p-aminophenol]: the “Molar enthalpy of transition or fusion” value is 27.5 ± 0.61 kJ/mol.

Turning to `NC(N)=Nc1nc(CSCC/C(N)=N/S(N)(=O)=O)cs1` [famotidine], the “Molar enthalpy of transition or fusion” value was 48.2 kJ/mol and 50.3 kJ/mol.

`N=C(N)N` [guanidine]: the “Molar enthalpy of transition or fusion” value amounted to 35.5 ± 0.77 kJ/mol.

The values are drawn from the NIST ThermoML archive (doi:10.1016/j.fluid.2015.07.032).
